Measured values as given in ChEMBL document CHEMBL3507680, “University of Dundee, Gates Library screen for HepG2 cell viability”.

Assay: Human HepG2 cell viability assay in 384 well format
Format: toxicity, cell-based
Design: dose 125 nL, time 70.5 hour; cytotoxicity at 70.5 h: concentration not given beside the values
Details: HepG2 cells, read-out: Inhibition

Row | Compound | cytotoxicity at 70.5 h
1 | Cc1cc(C(=O)N2CCCC(c3ccc(C(=O)O)cc3)C2)c(C)o1 (stereo not given) | -17.2%
2 | O=C(CN1CCOCC1)N1CCC2(CCCN(C3CCOCC3)C2=O)C1 (stereo not given) | 0.199%
3 | Cc1noc([C@@H]2CCCN2C(=O)C2CCN(CC(N)=O)CC2)n1 | -5.63%
4 | COCc1noc(-c2ccc(N(C)Cc3ccc(C)o3)nc2)n1 | -2.55%
5 | Cc1nc2c(c(=O)n1C)CCN(Cc1cc3cc[nH]c3cn1)CC2 | 10.6%
6 | CC(C)CCN1CCCC(Cn2cc(CCO)nn2)C1 (stereo not given) | -2.37%
7 | CC(C)Nc1cc(N2CCCC3(CN(C)C(=O)O3)C2)ncn1 (stereo not given) | 15%
8 | O=C(O)c1cc(-c2ccncc2)cc(S(=O)(=O)N2CCSCC2)c1 | -6.71%
9 | COCCc1noc(C2CCCN(c3ncnc4c3CCC4)C2)n1 (stereo not given) | -13.9%
10 | Cc1cc(N[C@H]2CN(CC(C)(C)N3CCOCC3)C[C@@H]2C2CC2)ncn1 | -15.4%
11 | CCc1ncc(C(=O)N2CCCOC(Cn3cccn3)C2)cn1 (stereo not given) | -0.891%
12 | CN(Cc1n[nH]c2c1CCC2)c1nc(C2CCCC2)nc2c1CNC2 | -8.94%
13 | Cn1ccnc1CN1C[C@@H](CN2CCCC2)[C@@H](CO)C1 | -5.13%
14 | Cn1ccnc1C1CCN(S(=O)(=O)c2ccc3oc(=O)[nH]c3c2)CC1 | -9.3%
15 | Cc1cnc(C)c(N2CCC(C(=O)O)(n3ccc(C(C)(C)C)n3)CC2)n1 | 30.8%
16 | COc1cccc2ccc(CN3CCN(c4ncccn4)CC3)nc12 | -5.87%
17 | O=C(NCCc1csc(-c2cccnc2)n1)c1cnn2c1CCCC2 | -7.57%
18 | O=S(=O)(NCC1CCCN(Cc2ccccc2F)C1)C1CC1 (stereo not given) | -5.21%
19 | O=C(C1CC1)N1CCc2[nH]cnc2C12CCN(C1CCOCC1)CC2 | -2.02%
20 | COCCN(Cc1ccc(C)cc1)Cc1nccn1C | -0.21%
21 | COc1cc2c(cc1C(=O)N1CCCCC1c1ccccn1)CCC2 (stereo not given) | -24%
22 | COc1ccc(C(=O)C2CCCN(Cc3cccc(F)c3)C2)c(OC)c1 (stereo not given) | -0.757%
23 | Cc1[nH]c2ccc(CNC3CCN(Cc4ccccn4)CC3)cc2c1C | 3.44%
24 | CN(Cc1ccsc1)C(=O)c1ccc(C2CCCO2)s1 (stereo not given) | 30.9%
25 | COCC1CCN(C(=O)c2cn(Cc3cccc(C(F)(F)F)c3)nn2)C1 (stereo not given) | -12.5%
26 | Cc1ccsc1CN(Cc1ncccc1C(=O)O)C1CC1 | -5.62%
27 | Cc1cccc(C(C(=O)N2CC(Oc3ccccc3F)C2)N(C)C)c1 (stereo not given) | -1.02%
28 | FC(F)(F)CCc1ccnc(N2CCN(Cc3ccncc3)CC2)n1 | -13.8%

Row | Compound | cytotoxicity at 70.5 h
29 | CCC(C)N(Cc1cnc(NCC(=O)O)nc1)Cc1ccsc1 (stereo not given) | -7.35%
30 | Cc1ccc([C@@H]2CN(C(=O)c3cc(C)no3)C[C@H]2NC(=O)C2CC2)cc1 | -6.47%
31 | CN(C(=O)CC1=CCCCC1)C1CCCN(C2Cc3ccccc3C2)C1 (stereo not given) | -0.808%
32 | CNC(=O)[C@@H]1C[C@@H](N)CN1c1nc(N2CCCC2)nc(C)c1C | -10.2%
33 | Cc1cc(C)c2c(NCCC34CCCN3CCC4)ncnc2n1 | -3.78%
34 | Cc1cc(C)c2ncn(CCOCCO)c(=O)c2c1 | -5.3%
35 | COCCC1(CO)CCCN(Cc2ccc(C(F)(F)F)cc2)C1 (stereo not given) | -4.92%
36 | CC(C)(O)CCc1cccc(C(=O)N2CCC[C@H]2CN2CCCC2)c1 | 32.8%
37 | COc1cc(OC)c(-c2nc3c([nH]2)c(C2CC2)nn3C)cc1OC | -3.1%
38 | Cc1nc(CN2CCCn3nc(CNC(=O)C4CCC4)cc3C2)co1 | 0.506%
39 | Clc1cccc2c3c([nH]c12)CCN(Cc1cc2n(n1)CCNC2)C3 | 22.8%
40 | Cn1ncc2c(NC3CN4CCC3CC4)nc(-c3ccncc3)nc21 (stereo not given) | 12%
41 | CCCN(Cc1cccnc1)C(=O)C1CCNC1 (stereo not given) | -1.17%
42 | CCN1CC(C(=O)NCc2noc(Cc3ccccc3)n2)CCC1=O (stereo not given) | -12.4%
43 | CCN(CCCN1CCOCC1)C(=O)c1cnn(CC)c1 | 2.38%
44 | Nc1ncc(C(=O)N2CCC(O)(CO)CC2)c(-c2ccccc2)n1 | -15.6%
45 | CN(Cc1cc2n(n1)CCN(C(=O)c1cccnc1)C2)Cc1nccs1 | -12%
46 | CSCCC(=O)N1C[C@H](Nc2ccnc(C)n2)[C@@H](C(C)C)C1 | -23.4%
47 | c1ccc(SCCN2CCCC(Cn3ccnc3)C2)cc1 (stereo not given) | -5.94%
48 | CCCc1nnc(N2CCC(N3CCCC3)CC2)o1 | 26%
49 | O=S(=O)(NCc1ccccc1)Nc1cccc(Cn2cncn2)c1 | -7.79%
50 | COc1ccccc1OCc1cc(C(=O)N2CCS(=O)(=O)CC2)n[nH]1 | -6.21%
51 | CCOc1ccnc(N2CCN(Cc3ncccc3C)CC2)n1 | 3.5%
52 | O=C(c1cccnc1-c1ccc2c(c1)OCCO2)N1CCCC1 | -8.05%
53 | C[C@@H]1CN(CCOc2ccc(F)cc2)CC[C@@]1(O)C1CCOCC1 | -2.42%
54 | O=C(CCN1CCCC(CC2CC2)(C(=O)O)C1)NC1CCCC1 (stereo not given) | -9.72%
55 | OC1(CN2CCC(Oc3cccc(C(F)(F)F)c3)CC2)CNCCOC1 (stereo not given) | -15.4%
